Assay results reported in ChEMBL document CHEMBL1149619, “E,E,E-1-(4-Arylamino-4-oxo-2-butenoyl)-3,5-bis(arylidene)-4-piperidones: a topographical study of some novel potent cytotoxins” (Bioorg Med Chem, 2007).

How the values were obtained:
[1] = Cytotoxicity against human Molt 4/C8 cells; type: functional, cell-based; conditions: Molt4/C8
CCRF-CEM = assay: Cytotoxicity against human CEM cells; type: functional, cell-based
L1210 = assay: Cytotoxicity against mouse L1210 cells; type: functional, cell-based
Aspergillus fumigatus [2] = assay: Antifungal activity against Aspergillus fumigatus F69827; type: functional
Aspergillus fumigatus [3] = assay: Antifungal activity against Aspergillus fumigatus M44251; type: functional
Aspergillus fumigatus [4] = assay: Antifungal activity against Aspergillus fumigatus ATCC 280995; type: functional
Aspergillus fumigatus [5] = assay: Antifungal activity against Aspergillus fumigatus ATCC 280996; type: functional
Aspergillus fumigatus [6] = assay: Antifungal activity against Aspergillus fumigatus ATCC 280997; type: functional
Mus musculus = assay: Neurotoxicity in mouse assessed as mortality up to 300 mg/kg after 4 hrs; type: toxicity, organism-based; design: dose 300 mg/kg; conditions: in vivo
[7] = Cytotoxicity against human colon cancer cells; type: functional; conditions: Cancer cell lines
[8] = Cytotoxicity against human leukemia cells; type: functional; conditions: Leukemia cell
[9] = molecular target: T1, Glycylpeptide N-tetradecanoyltransferase 1 (Homo sapiens) (UniProt P30419); assay: Inhibition of human NMT at 100 uM
T1 sequence (whole entry): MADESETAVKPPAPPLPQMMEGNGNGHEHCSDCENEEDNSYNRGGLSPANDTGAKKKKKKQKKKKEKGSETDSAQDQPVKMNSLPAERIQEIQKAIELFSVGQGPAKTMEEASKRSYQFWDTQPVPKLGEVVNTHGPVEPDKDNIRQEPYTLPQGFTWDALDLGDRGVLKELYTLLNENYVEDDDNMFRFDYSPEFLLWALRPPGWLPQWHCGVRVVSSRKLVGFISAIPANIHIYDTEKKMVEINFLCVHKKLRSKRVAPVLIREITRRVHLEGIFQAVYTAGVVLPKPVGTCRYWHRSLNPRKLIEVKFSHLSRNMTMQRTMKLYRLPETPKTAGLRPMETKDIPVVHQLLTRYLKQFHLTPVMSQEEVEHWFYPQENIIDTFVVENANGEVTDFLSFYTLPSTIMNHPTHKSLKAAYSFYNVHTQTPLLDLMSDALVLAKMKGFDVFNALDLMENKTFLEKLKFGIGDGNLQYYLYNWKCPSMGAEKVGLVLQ

[10] = molecular target: T1, Glycylpeptide N-tetradecanoyltransferase 1 (Homo sapiens); assay: Inhibition of human NMT at 50 uM

Row | SMILES | IC50 [1] [nM] | IC50 (CCRF-CEM) [nM] | IC50 (L1210) [µM] | MIC (Aspergillus fumigatus [2]) [µg/mL] | MIC (Aspergillus fumigatus [3]) [µg/mL] | MIC (Aspergillus fumigatus [4]) [µg/mL] | MIC (Aspergillus fumigatus [5]) [µg/mL] | MIC (Aspergillus fumigatus [6]) [µg/mL] | Activity (Mus musculus) | GI50 [7] [nM] | GI50 [8] [nM] | inhibition [9] [%] | inhibition [10] [%]
1 | Cc1cccc(C)c1NC(=O)/C=C/C(=O)N1C/C(=C\c2ccc([N+](=O)[O-])cc2)C(=O)/C(=C/c2ccc([N+](=O)[O-])cc2)C1 | 210 | 230 | 0.69 | > 50 | > 50 | > 50 | > 50 | > 50 | Non-toxic | – | – | – | –
2 | C[C@@H](c1ncncc1F)[C@](O)(Cn1cncn1)c1ccc(F)cc1F [VORICONAZOLE] | – | – | – | ≤ 0.25 | ≤ 0.25 | ≤ 0.25 | ≤ 0.25 | ≤ 0.25 | – | – | – | – | –
3 | O=C(/C=C/C(=O)N1C/C(=C\c2ccccc2)C(=O)/C(=C/c2ccccc2)C1)Nc1ccc([N+](=O)[O-])cc1 | 31000 | 40000 | 40 | > 50 | > 50 | > 50 | > 50 | > 50 | Non-toxic | – | – | – | –
4 | CC(=O)c1ccc(NC(=O)/C=C/C(=O)N2C/C(=C\c3ccc([N+](=O)[O-])cc3)C(=O)/C(=C/c3ccc([N+](=O)[O-])cc3)C2)cc1 | 390 | 360 | 1.4 | > 50 | > 50 | > 50 | > 50 | > 50 | Non-toxic | – | – | – | –
5 | O=C(/C=C/C(=O)N1C/C(=C\c2ccccc2)C(=O)/C(=C/c2ccccc2)C1)Nc1ccc(Cl)c(Cl)c1 | 1700 | 350 | 7.5 | > 50 | > 50 | > 50 | > 50 | > 50 | Non-toxic | 646 | 447 | 50 | –
6 | COc1ccc(NC(=O)/C=C/C(=O)N2C/C(=C\c3ccccc3)C(=O)/C(=C/c3ccccc3)C2)cc1 | 1100 | 510 | 6.8 | > 50 | > 50 | > 50 | > 50 | > 50 | Non-toxic | 759 | 105 | – | –
7 | COc1ccc(NC(=O)/C=C/C(=O)N2C/C(=C\c3ccc([N+](=O)[O-])cc3)C(=O)/C(=C/c3ccc([N+](=O)[O-])cc3)C2)cc1 | 940 | 760 | 2.9 | > 50 | > 50 | > 50 | > 50 | > 50 | Non-toxic | – | – | – | –
8 | O=C(/C=C/C(=O)N1C/C(=C\c2ccc([N+](=O)[O-])cc2)C(=O)/C(=C/c2ccc([N+](=O)[O-])cc2)C1)Nc1ccc(Cl)c(Cl)c1 | 600 | 380 | 1.7 | > 50 | > 50 | > 50 | > 50 | > 50 | Non-toxic | – | – | 50 | –
9 | Cc1ccc(NC(=O)/C=C/C(=O)N2C/C(=C\c3ccccc3)C(=O)/C(=C/c3ccccc3)C2)cc1C | 7900 | 7100 | 31 | > 50 | > 50 | > 50 | > 50 | > 50 | Non-toxic | – | – | – | –
10 | O=C(/C=C/C(=O)N1C/C(=C\c2ccc([N+](=O)[O-])cc2)C(=O)/C(=C/c2ccc([N+](=O)[O-])cc2)C1)Nc1ccc([N+](=O)[O-])cc1 | 430 | 410 | 1 | > 50 | > 50 | > 50 | > 50 | > 50 | Non-toxic | – | – | – | –
11 | O=c1[nH]cc(F)c(=O)[nH]1 [FLUOROURACIL] | – | – | – | – | – | – | – | – | – | 5750 | 52500 | – | –
12 | Cc1ccc(NC(=O)/C=C/C(=O)N2C/C(=C\c3ccc([N+](=O)[O-])cc3)C(=O)/C(=C/c3ccc([N+](=O)[O-])cc3)C2)cc1C | 660 | 700 | 4.9 | > 50 | > 50 | > 50 | > 50 | > 50 | Non-toxic | – | – | – | –
13 | N[C@@H](Cc1ccc(N(CCCl)CCCl)cc1)C(=O)O [MELPHALAN] | – | – | – | – | – | – | – | – | – | 50100 | 3980 | – | –
14 | Cc1ccc(NC(=O)/C=C/C(=O)N2C/C(=C\c3ccccc3)C(=O)/C(=C/c3ccccc3)C2)cc1 | 660 | 1100 | 5.8 | > 50 | > 50 | > 50 | > 50 | > 50 | Non-toxic | – | – | – | 50
15 | O=C(/C=C/C(=O)N1C/C(=C\c2ccc([N+](=O)[O-])cc2)C(=O)/C(=C/c2ccc([N+](=O)[O-])cc2)C1)Nc1ccccc1 | 360 | 370 | 1.8 | > 50 | > 50 | > 50 | > 50 | > 50 | Non-toxic | – | – | – | –
16 | O=C(/C=C/C(=O)N1C/C(=C\c2ccccc2)C(=O)/C(=C/c2ccccc2)C1)Nc1ccccc1 | 520 | 1100 | 3.6 | > 50 | > 50 | > 50 | > 50 | > 50 | Non-toxic | – | – | – | –
17 | Cc1cccc(C)c1NC(=O)/C=C/C(=O)N1C/C(=C\c2ccccc2)C(=O)/C(=C/c2ccccc2)C1 | 6600 | 7400 | 22 | > 50 | > 50 | > 50 | > 50 | > 50 | Non-toxic | – | – | – | –
18 | Cc1ccc(NC(=O)/C=C/C(=O)N2C/C(=C\c3ccc([N+](=O)[O-])cc3)C(=O)/C(=C/c3ccc([N+](=O)[O-])cc3)C2)cc1 | 700 | 890 | 4.4 | > 50 | > 50 | > 50 | > 50 | > 50 | Non-toxic | – | – | – | 50
19 | O=C(/C=C/C(=O)N1C/C(=C\c2ccccc2)C(=O)/C(=C/c2ccccc2)C1)Nc1ccc(Cl)cc1 | 1800 | 840 | 7.8 | > 50 | > 50 | > 50 | > 50 | > 50 | Non-toxic | 1150 | 589 | – | –
20 | O=C(/C=C/C(=O)N1C/C(=C\c2ccc([N+](=O)[O-])cc2)C(=O)/C(=C/c2ccc([N+](=O)[O-])cc2)C1)Nc1ccc(Cl)cc1 | 1200 | 810 | 3.6 | > 50 | > 50 | > 50 | > 50 | > 50 | Non-toxic | – | – | – | –
21 | CC(=O)c1ccc(NC(=O)/C=C/C(=O)N2C/C(=C\c3ccccc3)C(=O)/C(=C/c3ccccc3)C2)cc1 | 1400 | 1700 | 5.5 | > 50 | > 50 | > 50 | > 50 | > 50 | Non-toxic | – | – | – | –
